The text below walks through data of ChEMBL document CHEMBL1131540 (Bioorg Med Chem Lett, 1998).

Each structure is given as a SMILES string.

The target of experiment [1] is T1, Mu-type opioid receptor (Cavia porcellus, UniProt P97266). Nature of the experiment: Inhibitory concentration required against biological activity of mu opioid receptor from guinea pig ileum (GPI). The format is tissue-based.
In experiment [2] the target is T1, Mu-type opioid receptor. Put plainly: Compound was tested for binding affinity towards mu opioid receptor in guinea pig brain homogenates using [3H]CTOP as radioligand. The format is tissue-based.
The target of experiment [3] is Delta-type opioid receptor (Mus musculus, UniProt P32300). Nature of the experiment: Inhibitory concentration required against biological activity of Opioid receptor delta 1 from mouse vas deferens (MVD).
Chain of Delta-type opioid receptor (P32300 whole entry): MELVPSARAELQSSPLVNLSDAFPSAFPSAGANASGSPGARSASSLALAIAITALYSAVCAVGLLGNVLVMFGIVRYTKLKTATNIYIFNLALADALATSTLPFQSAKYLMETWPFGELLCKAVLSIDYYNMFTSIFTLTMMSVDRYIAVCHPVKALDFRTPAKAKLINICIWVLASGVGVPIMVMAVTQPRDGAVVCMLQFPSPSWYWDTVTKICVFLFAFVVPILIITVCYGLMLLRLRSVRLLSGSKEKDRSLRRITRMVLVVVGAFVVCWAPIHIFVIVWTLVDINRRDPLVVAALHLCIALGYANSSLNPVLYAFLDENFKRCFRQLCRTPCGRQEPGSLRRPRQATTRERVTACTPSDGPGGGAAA
For experiment [4], the system named is Opioid receptors; mu & delta. Nature of the experiment: Ratio of activity of mu opioid receptor from guinea pig ileum (GPI) to that of delta opioid receptor from mouse vas deferens (MVD). Format: tissue-based.
The target of experiment [5] is Opioid receptors; mu & delta (Homo sapiens) (UniProt P41143+P35372). Put plainly: Selectivity ratio of binding affinity towards delta opioid receptor to that of mu opioid receptor. Format: protein assay.
Chain of Opioid receptors; mu & delta (Homo sapiens) (P35372 whole entry, looked up): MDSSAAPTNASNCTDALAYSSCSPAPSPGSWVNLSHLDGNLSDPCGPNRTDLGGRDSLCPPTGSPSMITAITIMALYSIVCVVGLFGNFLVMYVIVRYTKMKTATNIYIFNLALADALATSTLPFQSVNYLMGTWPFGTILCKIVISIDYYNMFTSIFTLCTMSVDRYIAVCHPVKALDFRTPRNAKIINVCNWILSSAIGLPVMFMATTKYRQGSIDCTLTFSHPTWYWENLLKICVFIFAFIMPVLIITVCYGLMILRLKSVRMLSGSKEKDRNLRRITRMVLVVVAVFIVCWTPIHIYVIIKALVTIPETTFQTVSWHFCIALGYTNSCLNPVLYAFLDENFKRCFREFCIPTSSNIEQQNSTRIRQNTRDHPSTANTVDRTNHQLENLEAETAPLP
Chain of Opioid receptors; mu & delta (Homo sapiens) (P41143 whole entry, looked up): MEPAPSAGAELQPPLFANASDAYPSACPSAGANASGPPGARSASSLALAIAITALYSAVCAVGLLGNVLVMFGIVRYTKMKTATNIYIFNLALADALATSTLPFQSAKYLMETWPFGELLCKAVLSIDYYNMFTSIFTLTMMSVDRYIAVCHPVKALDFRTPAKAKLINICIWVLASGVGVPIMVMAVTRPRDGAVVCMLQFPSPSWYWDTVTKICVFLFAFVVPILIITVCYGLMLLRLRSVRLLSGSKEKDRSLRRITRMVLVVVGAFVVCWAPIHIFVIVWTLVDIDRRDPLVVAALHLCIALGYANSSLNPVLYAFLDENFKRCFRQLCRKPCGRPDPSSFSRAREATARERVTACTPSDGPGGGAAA

T1 sequence (P97266 whole entry): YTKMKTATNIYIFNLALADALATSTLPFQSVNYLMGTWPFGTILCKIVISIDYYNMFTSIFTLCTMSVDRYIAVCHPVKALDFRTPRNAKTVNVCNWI

With `C[C@@H](NC(=O)[C@@H](N)Cc1ccc(O)cc1)C(=O)NCC(=O)N[C@@H](Cc1c(F)c(F)c(F)c(F)c1F)C(=O)NNC(=O)[C@H](Cc1c(F)c(F)c(F)c(F)c1F)NC(=O)CNC(=O)[C@@H](C)NC(=O)[C@@H](N)Cc1ccc(O)cc1`, the IC50 at Mu-type opioid receptor [1] was 8.9 nM; in experiment [3], 25 nM. At Mu-type opioid receptor [2], the Ki was 0.91 nM. The Ratio in experiment [4] amounted to 0.36; in experiment [5], 0.12.
For `C[C@H](c1ccccc1)[C@H](NC(=O)CNC(=O)[C@@H](C)NC(=O)[C@@H](N)Cc1ccc(O)cc1)C(=O)NNC(=O)[C@@H](NC(=O)CNC(=O)[C@@H](C)NC(=O)[C@@H](N)Cc1ccc(O)cc1)[C@H](C)c1ccccc1` (stereo in doubt), in that order: 21 nM, 180 nM, 1.3 nM, 0.12 and 0.012.
In the case of `CC(NC(=O)[C@@H](N)Cc1ccc(O)cc1)C(=O)NCC(=O)N[C@H](C(=O)NNC(=O)[C@@H](NC(=O)CNC(=O)C(C)NC(=O)[C@@H](N)Cc1ccc(O)cc1)[C@@H](C)c1ccccc1)[C@@H](C)c1ccccc1` (single isomer, unassigned), the IC50 worked out at 41 nM against Mu-type opioid receptor [1] and 120 nM in experiment [3]. Besides, the affinity on Mu-type opioid receptor [2] corresponds to a Ki of 3 nM. For the same compound, the Ratio was 0.34 in experiment [4] and 0.27 in experiment [5].
In the same order, the values of `C[C@@H](NC(=O)[C@@H](N)Cc1ccc(O)cc1)C(=O)NCC(=O)N[C@@H](Cc1ccc2ccccc2c1)C(=O)NNC(=O)[C@H](Cc1ccc2ccccc2c1)NC(=O)CNC(=O)[C@@H](C)NC(=O)[C@@H](N)Cc1ccc(O)cc1` are 2.2 nM, 9.3 nM, 1.7 nM, 0.24 and 0.23.
Take `C[C@@H](NC(=O)[C@@H](N)Cc1ccc(O)cc1)C(=O)NCC(=O)N[C@@H](Cc1cccc2ccccc12)C(=O)NNC(=O)[C@H](Cc1cccc2ccccc12)NC(=O)CNC(=O)[C@@H](C)NC(=O)[C@@H](N)Cc1ccc(O)cc1`: the half-inhibitory concentration (IC50) at Mu-type opioid receptor [1] worked out at 1.7 nM; in experiment [3], 17 nM. The compound further had a Ki at Mu-type opioid receptor [2] of 0.79 nM. In addition, the Ratio in experiment [4] is 0.1; in experiment [5] it was 0.12.

As usually defined, the IC50 is the midpoint of a concentration-inhibition curve. Low values mean greater potency in that assay, high ones weaker potency in that assay. Broadly, the Ki is the dissociation constant of the complex between target and ligand, obtained from inhibition or displacement. Read a low Ki as a stronger hold on the target.
